In the NIST ThermoML archive (doi:10.1021/acs.jced.8b01204):

Assay: xn = mol fraction of the nth substance listed
Conditions: 101 kPa, Liquid; for speed of sound: Single path-length method; for mass density: Vibrating tube method

C[N+]1(CC2CO2)CCCC1=O.O=C([O-])c1ccccc1O (stereo not given) [1-methyl-1-(oxiran-2-ylmethyl)-2-oxopyrrolidinium salicylate] + CC(=O)O
Conditions | mass density, 293.15 K [kg/m3] | mass density, 298.15 K [kg/m3] | mass density, 303.15 K [kg/m3] | mass density, 308.15 K [kg/m3] | mass density, 313.15 K [kg/m3] | speed of sound, 293.15 K [m/s] | speed of sound, 298.15 K [m/s] | speed of sound, 303.15 K [m/s] | speed of sound, 308.15 K [m/s] | speed of sound, 313.15 K [m/s]
x1 = 0.0301 | 1080.9 | 1075.6 | 1070.3 | 1065 | 1059.7 | 1250 | 1232.7 | 1215.5 | 1198.6 | 1181.8
x1 = 0.0701 | 1103.7 | 1098.6 | 1093.5 | 1088.4 | 1083.3 | 1310.7 | 1294 | 1277.3 | 1260.7 | 1244.4
x1 = 0.1001 | 1117.2 | 1112.3 | 1107.3 | 1102.4 | 1097.4 | 1349.7 | 1333.2 | 1316.5 | 1300.1 | 1283.9
x1 = 0.2001 | 1147.6 | 1143 | 1138.3 | 1133.6 | 1128.8 | 1441 | 1424.6 | 1408.1 | 1391.8 | 1375.7
x1 = 0.3003 | 1166.3 | 1161.7 | 1157.2 | 1152.7 | 1148.9 | 1496.7 | 1480.2 | 1463.7 | 1447.5 | 1431
x1 = 0.4013 | 1178.7 | 1174.2 | 1169.7 | 1165.5 | 1161 | 1535 | 1515.8 | 1497.4 | 1480.2 | 1463.1
x1 = 0.5017 | 1187.3 | 1183 | 1178.7 | 1174.5 | 1170.1 | 1561.4 | 1541.8 | 1523.2 | 1504.9 | 1488.8
x1 = 0.6002 | 1193.9 | 1189.6 | 1185.4 | 1181.3 | 1177 | 1582.2 | 1562.5 | 1542.9 | 1528.5 | 1515.4
x1 = 0.7019 | 1199.1 | 1194.9 | 1190.7 | 1186.7 | 1182.5 | 1600 | 1582 | 1565.2 | 1548.8 | 1532.6
x1 = 0.8024 | 1203.6 | 1199.3 | 1195.1 | 1191 | 1186.7 | 1617.3 | 1600 | 1583 | 1566.5 | 1550.4
x1 = 0.901 | 1207 | 1202.7 | 1198.6 | 1194.5 | 1190.2 | 1626.8 | 1609.2 | 1592.2 | 1575.7 | 1559.5
x1 = 1 | 1209.8 | 1205.5 | 1201.3 | 1197.2 | 1193 | 1634.2 | 1614.5 | 1595.7 | 1577.6 | 1559.5
